Values of other authors in patent publication US9072916B2, “Aqueous anti-perspiration formulation” (BEIERSDORF AG, priority 2004, dated 2015).

Details: in water, alcohol, ether and 2-propanol

- solubility: readily soluble
Structure (SMILES): O=C(O)C(O)c1ccccc1 (stereo not shown) [Mandelic acid, mandelic acid]
